Laboratory results from patent US11382956B2, “Amylin analogues” (Zealand Pharma A/S, priority 2016, dated 2022).
Numbered stars: 1 amine (or outer) side, 2 acyl side, 3 side chain; on linkers, the order of the positions; unused ones are H or OH. Bridge positions count the residues as written; N and C are the ends. Square brackets hold non-standard residues; d marks the D form. Peptide text beside a SMILES is read from it. * marks the point of attachment. C20 diacid = O=C(O)CCCCCCCCCCCCCCCCCCC(=O)*; γGlu = O=C(O)[C@H](CCC(=O)[*:2])N[*:1]; Hyp = O=C(O)[C@@H]1C[C@@H](O)CN1; NMeI = CC[C@H](C)[C@H](NC)C(=O)O; Orn = NCCC[C@H](N)C(=O)O; Dab = NCC[C@H](N)C(=O)O; Dap = NC[C@H](N)C(=O)O; Sar = CNCC(=O)O

Experiments:
[1] = biological target: T1, recombinant human calcitonin receptor (hCT-R) (Homo sapiens, UniProt P30988); assay: hCT-R cAMP assay (AlphaScreen) in 1321N1 cells; format: cell-based; conditions: cAMP formation, 45 min stimulation
T1 construct: host or cells: human astrocytoma cell line 1321N1
T1 sequence (P30988 25-474): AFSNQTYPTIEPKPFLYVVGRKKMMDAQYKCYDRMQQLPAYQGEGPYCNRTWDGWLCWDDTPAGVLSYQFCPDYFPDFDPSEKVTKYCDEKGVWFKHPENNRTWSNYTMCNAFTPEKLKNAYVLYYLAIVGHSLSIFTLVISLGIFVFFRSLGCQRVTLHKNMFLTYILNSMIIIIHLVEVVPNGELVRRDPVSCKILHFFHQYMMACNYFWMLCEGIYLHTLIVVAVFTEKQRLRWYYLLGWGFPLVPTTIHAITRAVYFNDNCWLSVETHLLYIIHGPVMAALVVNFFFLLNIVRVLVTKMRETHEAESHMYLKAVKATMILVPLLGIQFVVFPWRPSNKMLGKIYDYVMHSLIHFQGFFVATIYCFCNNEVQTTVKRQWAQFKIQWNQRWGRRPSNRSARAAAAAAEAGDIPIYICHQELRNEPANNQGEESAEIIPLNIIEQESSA
Text: (§1) For the assessment of the in vitro activity of test peptides, cell lines expressing recombinant human calcitonin receptor (hCT-R) or recombinant human amylin 3 receptor (hAMYR3) in the background of the human astrocytoma cell line 1321N1 were purchased from DiscoveRx Corporation (Cat. No. 95-016106 and 95-0166C6). The hAMYR3 is a hetero-oligomer of the calcitonin receptor (Isoform 2; Gene ID 799) and RAMPS (Gene ID 10268) that forms when both genes are expressed in the same cell. The hCT-R cell line expresses only the recombinant human calcitonin receptor gene (Isoform 2; Gene ID 799). Upon activation of hCT-R or hAMYR3 by the test peptides the formation of cAMP is induced and was measured using the AlphaScreen® cAMP Assay kit from Perkin-Elmer (Cat. No. 6760635R).
(§2) Briefly, 1321N1 cells expressing hCT-R or hAMYR3 were seeded in 384-well microtiter plates (Falcon Optilux White, Cat.-No. 10448642) at 5,000 cells in […] growth medium per well (AssayComplete 1321N1 Cell Culture Kit, DiscoveRx Corp.), and incubated for 24 h at 37° C., 5% CO2. On the day of analysis growth medium was removed and the cells were stimulated by adding 10 μL of stimulation buffer (10 […], 0.1% BSA) containing increasing concentrations of test peptides, and incubation for 45 min at room temperature. The stimulation was stopped by adding 5.6 μL/well donor bead detection mix (5 mM Hepes pH7.4, 0.5% TWEEN 20, 0.1% BSA, 0.05 mg/mL donor beads, 62.5 nM biotinylated cAMP) and 4.5 μL/well acceptor bead solution (5 mM Hepes pH7.4, 0.5% TWEEN 20, 0.1% BSA, 0.05 mg/mL acceptor beads). After thorough mixing the plates were incubated in the dark for 1 h at room temperature and the cAMP content of the resulting cell lysates was estimated according to the AlphaScreen® cAMP Assay manufacturer's instructions. EC50 values were estimated by computer-aided curve fitting of results of at least 7 different compound concentrations.

[2] = biological target: T2, recombinant human amylin 3 receptor (hAMYR3) (Homo sapiens, UniProt O60896+P30988); assay: hAMYR3 cAMP assay (AlphaScreen) in 1321N1 cells; format: cell-based; conditions: cAMP formation, 45 min stimulation
T2 construct: host or cells: human astrocytoma cell line 1321N1
T2 sequence (P30988 25-474): T1 sequence (P30988 25-474)
T2 sequence (O60896 24-148 partner): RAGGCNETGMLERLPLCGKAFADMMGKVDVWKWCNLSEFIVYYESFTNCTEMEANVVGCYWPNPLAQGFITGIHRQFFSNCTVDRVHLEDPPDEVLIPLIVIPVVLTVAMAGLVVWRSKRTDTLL
Text: as §1, §2

[3] = Assessment of chemical stability in 40 mM buffers at 40° C. (RP-HPLC); format: physicochemical; conditions: 1 mg/mL
Method: Samples of each test peptide were dissolved in acetate buffer pH 4 and phosphate buffer pH 6 and 7 (all buffer 40 mM). The final peptide concentration was 1 mg/mL. Samples were placed in glass vials and incubated at 40° C. The samples were analyzed by RP-HPLC on a C8 column with gradient elution using a trifluoroacetic acid/acetonitrile/water eluent system. The area-percentage (area-%) of the main peak was determined by UV spectroscopy at 220 nm at each sampling time point.
The % degradation was calculated by subtracting the […].
The results of the chemical stability assessment after 3 days of incubation time are summarized as % degradation in Table 1 (below).
The results of the chemical stability assessment after 14 days of incubation time are summarized as % degradation in Table 2 (below).

Row | Molecule | EC50 [1] [nM] | EC50 [2] [nM] | % degradation after 14 days at 40° C. pH4 acetate ([3]; acetate buffer pH 4, 14 days) [%] | % degradation after 14 days at 40° C. pH6 phosphate ([3]; phosphate buffer pH 6, 14 days) [%] | % degradation after 14 days at 40° C. pH7 phosphate ([3]; phosphate buffer pH 7, 14 days) [%]
1 | CC[C@H](C)[C@@H](C(=O)N[C@@H](CC(C)C)C(=O)N[C@@H](CO)C(=O)N[C@@H](CO)C(=O)N[C@H](C(=O)N[C@@H](CCC(=O)O)C(=O)N[C@H](C(=O)NCC(=O)N[C@@H](CO)C(=O)N[C@@H](CC(N)=O)C(=O)N[C@H](C(=O)N1C[C@H](O)C[C@H]1C(N)=O)[C@@H](C)O)C(C)C)[C@@H](C)O)N(C)C(=O)[C@H](C)NC(=O)CN(C)C(=O)[C@H](Cc1ccccc1)NC(=O)[C@H](CO)NC(=O)[C@H](CO)NC(=O)[C@H](CCCNC(=N)N)NC(=O)[C@H](CCC(N)=O)NC(=O)[C@H](CC(C)C)NC(=O)[C@H](Cc1ccccc1)NC(=O)[C@H](Cc1c[nH]cn1)NC(=O)[C@H](C)NC(=O)[C@H](CC(C)C)NC(=O)[C@H](CCCNC(=N)N)NC(=O)[C@H](CCC(=O)O)NC(=O)[C@@H](NC(=O)[C@H](C)NC(=O)[C@@H]1CNC(=O)C[C@H](NC(=O)[C@H](CCCNC(=N)N)NC(=O)CC[C@H](NC(=O)CCCCCCCCCCCCCCCCCCC(=O)O)C(=O)O)C(=O)NCC(=O)N[C@@H]([C@@H](C)O)C(=O)N[C@@H](C)C(=O)N[C@@H]([C@@H](C)O)C(=O)N1)[C@@H](C)O [Compound 1, [19CD]-isoGlu-RD()GTAT-Dap()-ATERLAHFLQRSSF-Gly(Me)-A-Ile(Me)-LSSTEVGSNT-Hyp-NH2] ({C20 diacid-γGlu}-RDGTAT[Dap]ATERLAHFLQRSSF[Sar]A[NMeI]LSSTEVGSNT[Hyp]-NH2; lactam 2-7) | 13.6 | 9.3 |  |  | 
2 | CC[C@H](C)[C@@H](C(=O)N[C@@H](CC(C)C)C(=O)N[C@@H](CO)C(=O)N[C@@H](CO)C(=O)N[C@H](C(=O)N[C@@H](CCC(=O)O)C(=O)N[C@H](C(=O)NCC(=O)N[C@@H](CO)C(=O)N[C@@H](CC(N)=O)C(=O)N[C@H](C(=O)N1C[C@H](O)C[C@H]1C(N)=O)[C@@H](C)O)C(C)C)[C@@H](C)O)N(C)C(=O)[C@H](C)NC(=O)CN(C)C(=O)[C@H](Cc1ccccc1)NC(=O)[C@H](CO)NC(=O)[C@H](CO)NC(=O)[C@H](CCCNC(=N)N)NC(=O)[C@H](CCC(N)=O)NC(=O)[C@H](CC(C)C)NC(=O)[C@H](Cc1ccccc1)NC(=O)[C@H](Cc1c[nH]cn1)NC(=O)[C@H](C)NC(=O)[C@H](CC(C)C)NC(=O)[C@H](CCCNC(=N)N)NC(=O)[C@H](CCC(=O)O)NC(=O)[C@@H](NC(=O)[C@H](C)NC(=O)[C@@H]1CCNC(=O)C[C@H](NC(=O)[C@H](CCCNC(=N)N)NC(=O)CC[C@H](NC(=O)CCCCCCCCCCCCCCCCCCC(=O)O)C(=O)O)C(=O)NCC(=O)N[C@@H]([C@@H](C)O)C(=O)N[C@@H](C)C(=O)N[C@@H]([C@@H](C)O)C(=O)N1)[C@@H](C)O [Compound 2, [19CD]-isoGlu-RD()GTAT-Dab()-ATERLAHFLQRSSF-Gly(Me)-A-Ile(Me)-LSSTEVGSNT-Hyp-NH2] ({C20 diacid-γGlu}-RDGTAT[Dab]ATERLAHFLQRSSF[Sar]A[NMeI]LSSTEVGSNT[Hyp]-NH2; lactam 2-7) | 0.105 | 0.032 |  |  | 
3 | CC[C@H](C)[C@@H](C(=O)N1CCC[C@H]1C(=O)N[C@@H](CO)C(=O)N[C@@H](CO)C(=O)N[C@H](C(=O)N[C@@H](CCC(=O)O)C(=O)N[C@H](C(=O)NCC(=O)N[C@@H](CO)C(=O)N[C@@H](CC(N)=O)C(=O)N[C@H](C(=O)N1C[C@H](O)C[C@H]1C(N)=O)[C@@H](C)O)C(C)C)[C@@H](C)O)N(C)C(=O)[C@H](C)NC(=O)CN(C)C(=O)[C@H](Cc1ccccc1)NC(=O)[C@H](CO)NC(=O)[C@H](CO)NC(=O)[C@H](CCCNC(=N)N)NC(=O)[C@H](CCC(N)=O)NC(=O)[C@H](CC(C)C)NC(=O)[C@H](Cc1ccccc1)NC(=O)[C@H](Cc1c[nH]cn1)NC(=O)[C@H](C)NC(=O)[C@H](CC(C)C)NC(=O)[C@H](CCCNC(=N)N)NC(=O)[C@H](CCC(=O)O)NC(=O)[C@@H](NC(=O)[C@H](C)NC(=O)[C@@H]1CCCNC(=O)C[C@H](NC(=O)[C@H](CCCNC(=N)N)NC(=O)CC[C@H](NC(=O)CCCCCCCCCCCCCCCCCCC(=O)O)C(=O)O)C(=O)NCC(=O)N[C@@H]([C@@H](C)O)C(=O)N[C@@H](C)C(=O)N[C@@H]([C@@H](C)O)C(=O)N1)[C@@H](C)O [Compound 5, [19CD]-isoGlu-RD()GTAT-Orn()-ATERLAHFLQRSSF-Gly(Me)-A-Ile(Me)-PSSTEVGSNT-Hyp-NH2] ({C20 diacid-γGlu}-RDGTAT[Orn]ATERLAHFLQRSSF[Sar]A[NMeI]PSSTEVGSNT[Hyp]-NH2; lactam 2-7) | 0.114 | 0.032 |  |  | 
4 | CC[C@H](C)[C@@H](C(=O)N[C@@H](CC(C)C)C(=O)N[C@@H](CO)C(=O)N[C@@H](CO)C(=O)N[C@H](C(=O)N[C@@H](CCC(=O)O)C(=O)N[C@H](C(=O)NCC(=O)N[C@@H](CO)C(=O)N[C@@H](CC(N)=O)C(=O)N[C@H](C(=O)N1C[C@H](O)C[C@H]1C(N)=O)[C@@H](C)O)C(C)C)[C@@H](C)O)N(C)C(=O)[C@H](C)NC(=O)CN(C)C(=O)[C@H](Cc1ccccc1)NC(=O)[C@H](CCCNC(=N)N)NC(=O)[C@H](CCC(N)=O)NC(=O)[C@H](CC(C)C)NC(=O)[C@H](Cc1ccccc1)NC(=O)[C@H](Cc1c[nH]cn1)NC(=O)[C@H](C)NC(=O)[C@H](CC(C)C)NC(=O)[C@H](CCCNC(=N)N)NC(=O)[C@H](CCC(=O)O)NC(=O)[C@@H](NC(=O)[C@H](C)NC(=O)[C@@H]1CCCNC(=O)C[C@H](NC(=O)[C@H](CCCNC(=N)N)NC(=O)CC[C@H](NC(=O)CCCCCCCCCCCCCCCCCCC(=O)O)C(=O)O)C(=O)NCC(=O)N[C@@H]([C@@H](C)O)C(=O)N[C@@H](C)C(=O)N[C@@H]([C@@H](C)O)C(=O)N1)[C@@H](C)O [Compound 6, [19CD]-isoGlu-RD()GTAT-Orn()-ATERLAHFLQRF-Gly(Me)-A-Ile(Me)-LSSTEVGSNT-Hyp-NH2] ({C20 diacid-γGlu}-RDGTAT[Orn]ATERLAHFLQRF[Sar]A[NMeI]LSSTEVGSNT[Hyp]-NH2; lactam 2-7) | 0.327 | 0.011 |  |  | 
5 | N-α-[(S)-4-carboxy-4-(19-carboxynonadecanoylamino)butyryl]-[Arg1,Glu14,His17,Pro37]-pramlintide [NN96, reference compound] |  |  | 3.0 | 10.1 | 33.2
